Here are results for 3 molecules from patent US6555710B1, “Aminobenzophenones as inhibitors of IL-1 β and TNF-α” (Leo Pharmaceutical Products Ltd a/s Lovens Kemiske Fabrik …, priority 1999, dated 2003).

Common to all, as to assay type: cell-based
The subject of one assay is TNF-α. Nature of the assay: Inhibition of TNF-α secretion in LPS stimulated peripheral blood mononuclear cells (ELISA). The conditions noted are these: PBMC; LPS stimulated human peripheral blood mononuclear cells, 18 hours; read-out: The median inhibition concentration (IC50) of TNF-α. The method, then:
(§1) To study the effect of the compound of the present invention in vitro the inhibition of the IL-1β and TNF-α secretion was measured using the following procedure:
(§2) Cytokine production was measured in the media from lipopolysaccharide (LPS) stimulated peripheral blood mononuclear cells. The mononuclear cells were isolated from human peripheral blood by Lymphoprep® (Nycomed, Norway) fractionation and suspended in RPMI 1640 (growth medium) with foetal calv serum (FCS, 2%), at a concentration of 5×10^5 cells/ml. The cells were incubated in 24-well tissue culture plates in 1 ml aliquots. Test compounds were dissolved in dimethylsulfoxide (DMSO, 10 mM) and were diluted with the medium. Compounds were added to the cells for 30 minutes, then LPS ([…] final concentration) was added. The plates were incubated for 18 hours, and the concentration of IL-1β and TNF-α in the medium was determined by enzyme-linked immunosorbent assays. The median inhibitory concentrations (IC50) of the compounds were calculated.
For orientation: In an ELISA, binding on a coated surface is turned into a signal by an enzyme label.

The subject of another assay is IL-1β. Nature of the assay: Inhibition of IL-1β secretion in LPS stimulated peripheral blood mononuclear cells (ELISA). The conditions noted are these: PBMC; LPS stimulated human peripheral blood mononuclear cells, 18 hours; read-out: The median inhibition concentration (IC50) of IL-1β. The protocol:
as §1, §2

Assay [1] deals with Human polymorphonuclear (PMN) granulocytes. As to the kind of experiment: Inhibition of PMN superoxide secretion (ferricytochrome C reduction, TNF-α primed, fMLP stimulated). The conditions noted are these: read-out: The median inhibition concentration (IC50) of PMN-superoxide. The protocol: The compounds of the present invention also show similar activities in the ability to inhibit PMN (polymorphonuclear) superoxide secretion which is also indicative of potentially useful anti-inflammatory drugs. The compounds were tested using the following procedure:
Human polymorphonuclear (PMN) granulocytes were isolated from human blood by dextran sedimentation, Lymphoprep® fractionation and hypotonic lysis of contaminating erythrocytes. Superoxide anion generation was measured as the superoxide dismutase inhibitable reduction of ferricytochrome C (Madhu, S. B. et al, Inflammation, 16, 241, (1992)). The cells were suspended in Hanks' balanced salt solution, and incubated for 10 minutes at 37° C. with test compounds. The cells were primed by the addition of TNF-α (3 ng/ml final concentration) for 10 minutes, and then ferricytochrome C, (final concentration 750 μg/ml), bovine serum albumin (BSA, final concentration 1 mg/ml) and formyl-methionyl-leucyl-phenylalanine (fMLP, final concentration 10^−7 M) were added for 3 minutes. The cells were chilled on ice, and were spun down. The optical densities in the cell-free supernatant was measured in a spectrophotometer. The median inhibitory concentration (IC50) of the compounds was calculated.

For the molecule `Cc1ccccc1C(=O)c1ccc(Nc2ccc(F)cc2NC(=O)C(F)(F)F)cc1Cl` [Compound 102, 2,2,2-Trifluoro-N-[2-[3-chloro-4-(2-methylbenzoyl)-phenylamino]-5-fluoro-phenyl]acetamide], the IC50 in the assay with TNF-α was 3.2 nM; in the assay with IL-1β, 6.3 nM; in assay [1], 25 nM.
As for `Cc1ccccc1C(=O)c1ccc(Nc2ccc(Br)cc2NC(=O)C(F)(F)F)cc1Cl` [Compound 101, 2,2,2-Trifluoro-N-[5-bromo-2-[3-chloro-4-(2-methylbenzoyl)-phenylamino]-phenyl]acetamide], the values for the IC50 (with TNF-α; in the assay with IL-1β; in assay [1]) were 6.3 nM, 32 nM and 13 nM, respectively.
As to `Cc1ccccc1C(=O)c1ccc(Nc2ccccc2NC(=O)C(F)(F)F)cc1Cl` [ref. b), 2,2,2-Trifluoro-N-[2-[3-chloro-4-(2-methylbenzoyl)-phenylamino]-phenyl]acetamide, reference compound], the IC50 was 4 nM in the assay with TNF-α, 20 nM in the assay with IL-1β and 13 nM in assay [1].
